According to patent US4668672A, “Feed compositions containing pyridylalkylhydrazides” (SmithKline Beckman Corporation, priority 1985, dated 1987):
“And” between values parts separate entries of the source, which are not always exact repeats. Equal entries are not always repeated. Where two headings read alike, the source gives them in different places.

Tests used:
[1] = Chick growth study; assay type: in vivo, broiler chicks; conditions: for response vs control in vivo at 40 ppm / response vs control in vivo at 50 ppm / response vs control in vivo at 10 ppm / response vs control in vivo at 49 ppm: Gallus gallus, feed or water, 408 h; for response vs control in vivo at 40 ppm: 40 ppm in feed; for response vs control in vivo at 50 ppm: 50 ppm in feed; for feed conversion / weight gain: chickens; for response vs control in vivo at 10 ppm: 10 ppm in feed; for response vs control in vivo at 49 ppm: 49 ppm in feed
Experimental: 512 Day old broiler chicks, selected for weight, health and sex, are housed in an environmentally controlled room with temperature at 37.7° and humidity at 40%. Chicks are fed ad libitum. Water is offered ad libitum. A corn or, preferably, rye basal ration is fed during the acclimation period (days 1 and 2), then, mixed with the compound under test or used as a control on days 3-17. Either 8 or 16 chicks are used for each test or control group.

[2] = system: swine ileal or cecal inoculum (filtrate of cannula material); test: In vitro swine procedure (incubation of inoculum from cannulated swine, in vitro fistula procedure); parameters: species or system swine (Yorksire barrow)
[3] = days 3-17, read-out: Feed Gain (3-17 day)
[4] = days 3-17, read-out: Weight (17 day)
[5] = 166.67 ppm, 5 hours at 37°, blank control = 100%
[6] = 1.67 ppm, 5 hours at 37°, blank control = 100%
[7] = 16.67 ppm, 5 hours at 37°, blank control = 100%
[8] = 116.67 ppm, 5 hours at 37°, blank control = 100%
[9] = 50.0 (unit not given) in feed, days 3-17

In the case of COC(=O)NN=Cc1ccncc1, the response vs control in vivo at 40 ppm [1, 3] is reported as 102% and the response vs control in vivo at 40 ppm [1, 4] is reported as 96.9%.
In the case of COC(=O)NN=Cc1cccnc1, the response vs control in vivo at 50 ppm [1, 3] is reported as 102% and the response vs control in vivo at 50 ppm [1, 4] is reported as 98.4%.
For “3-azabicyclo[3.2.2]nonane-3-carbothioic acid 2-[1-(2-pyridyl)ethyl]hydrazide”, the feed conversion ([1]; fed at 50 ppm) was “better feed conversion” and the weight gain ([1]; fed at 50 ppm) was “increased weight gain”.
In the case of CC(=NNC(=S)N1CCCCCC1)c1ccccn1 [Compound 10], the response vs control in vivo at 10 ppm [1, 3] is reported as 92.3%, the response vs control in vivo at 10 ppm [1, 4] is reported as 110% and the response vs control in vivo at 50 ppm [1, 3] is reported as 80.6%. The response vs control in vivo at 50 ppm [1, 4] was 103%.
With CC(=NNC(=S)N1CCCCC1)c1ccccn1 [drawing 2] the “LYS (lysine)” value [2, 5] was 23 % of Control Values and 18 % of Control Values and the “VFA (total of volatile fatty acids)” value [2, 5] was 63 % of Control Values.
For COC(=O)NN=C(C)c1ccccn1 [drawing 3], the “LYS (lysine)” value [2, 6] was 70 % of Control Values, the “LYS (lysine)” value [2, 7] was 134 % of Control Values and the “VFA (total of volatile fatty acids)” value [2, 7] was 94 % of Control Values. For the same compound, the “LYS (lysine)” value [2, 5] was 99 % of Control Values and the “VFA (total of volatile fatty acids)” value [2, 5] was 88 % of Control Values.
In the case of COC(=O)NN=Cc1ccccn1 [drawing 4], the “LYS (lysine)” value [2, 6] is reported as 65 % of Control Values, the “VFA (total of volatile fatty acids)” value [2, 6] is reported as 90 % of Control Values and the “LYS (lysine)” value [2, 7] is reported as 140 % of Control Values. The “VFA (total of volatile fatty acids)” value [2, 7] was 104 % of Control Values, the “LYS (lysine)” value [2, 5] was 109 % of Control Values and the “VFA (total of volatile fatty acids)” value [2, 5] was 109 % of Control Values.
In the case of CC(=NNC(N)=S)c1ccccn1 [drawing 5], the “GLU (glucose)” value [2, 5] is reported as 147 % of Control Values, the “LAC (L lactic acid)” value [2, 5] is reported as 88 % of Control Values and the “LYS (lysine)” value [2, 5] is reported as 137 % of Control Values. For the same compound, the “VFA (total of volatile fatty acids)” value [2, 5] was 43 % of Control Values.
With CC(=NNC(=S)N1CC2CCC(CC2)C1)c1ccccn1 [drawing 6] the “VFA (total of volatile fatty acids)” value [2] was 97 % of Control Values and the “LYS (lysine)” value [2, 5] was 107 % of Control Values.
In the case of CSC(=S)NN=C(C)c1ccccn1 [drawing 7], the “GLU (glucose)” value [2, 5] is reported as 95 % of Control Values, the “LAC (L lactic acid)” value [2, 5] is reported as 113 % of Control Values and the “LYS (lysine)” value [2, 5] is reported as 103 % of Control Values. The “VFA (total of volatile fatty acids)” value [2, 5] was 89 % of Control Values.
For CC(=NNC(=S)N1CC2CCC(CC2)C1)c1ccccn1 [drawing 8], the response vs control in vivo at 50 ppm [1, 3] was 80.6% and the response vs control in vivo at 50 ppm [1, 4] was 103%.
For CC(=NNC(=S)N1CCCCC1)c1ccccn1 [drawing 9], the response vs control in vivo at 10 ppm [1, 3] was 92.3%, the response vs control in vivo at 10 ppm [1, 4] was 110% and the response vs control in vivo at 50 ppm [1, 3] was 80.6%. For the same compound, the response vs control in vivo at 50 ppm [1, 4] was 103%.
For COC(=O)NN=Cc1ccccn1 [drawing 12], the response vs control in vivo at 50 ppm [1, 3] was 86.4% and the response vs control in vivo at 50 ppm [1, 4] was 119%.
Compound COC(=O)NN=C(C)c1ccccn1 [drawing 13] has a response vs control in vivo at 50 ppm [1, 3] of 94% and a response vs control in vivo at 50 ppm [1, 4] of 110%.
In the case of CC(=NNC(N)=S)c1ccccn1 [drawing 14], the response vs control in vivo at 50 ppm [1, 3] is reported as 91.2% and the response vs control in vivo at 50 ppm [1, 4] is reported as 107%.
In the case of CC(=NNC(=S)N1CC2CCC(CC2)C1)c1ccccn1 [drawing 15], the response vs control in vivo at 49 ppm [1, 3] is reported as 84.1% and the response vs control in vivo at 49 ppm [1, 4] is reported as 102%.
For CSC(=S)NN=C(C)c1ccccn1 [drawing 16], the response vs control in vivo at 40 ppm [1, 3] was 86.6% and the response vs control in vivo at 40 ppm [1, 4] was 72.8%.
For CC(=NNC(=S)N1CCCCCC1)c1ccccn1 [hexahydro-1H-azepine-1-carbothioic acid [1-(2-pyridinyl)-ethylidinyl]hydrazide], the feed conversion ([1]; fed at 10 and 50 ppm) was “better feed conversion” and the weight gain ([1]; fed at 10 and 50 ppm) was “increased weight gain”.
For Virginiamycin [reference compound], the “GLU (glucose)” value [2] was 190 % of Control Values, the “LAC (L lactic acid)” value [2, 8] was 17 % of Control Values and the “LYS (lysine)” value [2, 8] was 171 % of Control Values. For the same compound, the “VFA (total of volatile fatty acids)” value [2, 8] was 25 % of Control Values, the “Feed Gain (3-17 day)” value [1, 9] was 85.0 % of Control and the “Weight (17 day)” value [1, 9] was 118.9 % of Control.
